Data as given in US12629371B2, “Compositions and methods for inhibiting kinases” (Inhibikase Therapeutics, Inc., priority 2016, dated 2026).
One block for each compound: values may come before it.

Experiments:
ABL = ABL (Homo sapiens, UniProt P00519); test: Inhibition profile at 500 nM: ABL / Abl1; format: biochemical; details: 500 nM test compound; Table 1
Procedure: (§1) Then enzyme substrate is added as 10 μl of 2.5×FAM-labeled peptide+ATP solution to each well of the 384-well assay plate The reaction is allowed to proceed at 28° C. and quenched with the addition of 25 μl of stop buffer. The release of fluorescent FAM is quantitated as Percent inhibition=(max−conversion)/(max−min)*100.sp; “max” stands for DMSO control; “min” stands for low control. Convert conversion values to inhibition values. Percent inhibition=(max−conversion)/(max−min)*100. “max” stands for DMSO control; “min” stands for low control.

ARG/Abl2 = ARG/Abl2 (Homo sapiens, UniProt P42684); test: Inhibition profile at 500 nM: ARG/Abl2; format: biochemical; details: 500 nM test compound; Table 1
Sequence of ARG/Abl2 (P42684 whole entry): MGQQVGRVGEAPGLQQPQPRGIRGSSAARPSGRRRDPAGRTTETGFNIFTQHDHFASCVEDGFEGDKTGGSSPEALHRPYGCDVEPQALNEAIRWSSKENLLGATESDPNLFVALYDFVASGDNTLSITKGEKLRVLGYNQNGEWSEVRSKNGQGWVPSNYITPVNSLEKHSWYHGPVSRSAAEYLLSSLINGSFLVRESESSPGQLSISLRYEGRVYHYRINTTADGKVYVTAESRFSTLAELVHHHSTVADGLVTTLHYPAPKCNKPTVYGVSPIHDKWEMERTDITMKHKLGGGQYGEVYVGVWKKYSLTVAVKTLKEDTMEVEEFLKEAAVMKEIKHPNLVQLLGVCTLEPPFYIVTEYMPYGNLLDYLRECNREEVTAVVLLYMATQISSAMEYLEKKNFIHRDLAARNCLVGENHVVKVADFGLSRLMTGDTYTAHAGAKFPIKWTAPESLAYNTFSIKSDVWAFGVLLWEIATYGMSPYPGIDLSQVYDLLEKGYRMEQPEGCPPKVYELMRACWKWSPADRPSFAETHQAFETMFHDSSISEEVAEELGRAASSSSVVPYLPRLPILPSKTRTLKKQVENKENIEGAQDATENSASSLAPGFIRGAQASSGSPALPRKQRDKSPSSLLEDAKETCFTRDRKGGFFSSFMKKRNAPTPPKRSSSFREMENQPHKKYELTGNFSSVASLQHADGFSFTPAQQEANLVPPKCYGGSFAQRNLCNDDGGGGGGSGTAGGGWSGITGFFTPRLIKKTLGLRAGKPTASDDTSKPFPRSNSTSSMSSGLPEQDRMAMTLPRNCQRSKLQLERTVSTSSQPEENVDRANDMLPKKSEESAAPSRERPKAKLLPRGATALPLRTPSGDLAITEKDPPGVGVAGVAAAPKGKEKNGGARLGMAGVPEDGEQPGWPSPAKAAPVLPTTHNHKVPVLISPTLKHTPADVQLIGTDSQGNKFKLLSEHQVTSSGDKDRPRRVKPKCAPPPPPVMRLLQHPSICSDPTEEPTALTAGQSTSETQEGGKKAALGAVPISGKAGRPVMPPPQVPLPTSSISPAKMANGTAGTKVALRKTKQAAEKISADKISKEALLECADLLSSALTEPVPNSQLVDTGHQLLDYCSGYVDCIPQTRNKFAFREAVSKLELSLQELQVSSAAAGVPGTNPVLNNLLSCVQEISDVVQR
Procedure: as §1

PDGFRa = PDGFRa (Homo sapiens, UniProt P16234); test: Inhibition profile at 500 nM: PDGFRa; format: biochemical; details: 500 nM test compound; Table 2; read-out: Percent inhibition PDGFRa
Sequence of PDGFRa (P16234 24-1089): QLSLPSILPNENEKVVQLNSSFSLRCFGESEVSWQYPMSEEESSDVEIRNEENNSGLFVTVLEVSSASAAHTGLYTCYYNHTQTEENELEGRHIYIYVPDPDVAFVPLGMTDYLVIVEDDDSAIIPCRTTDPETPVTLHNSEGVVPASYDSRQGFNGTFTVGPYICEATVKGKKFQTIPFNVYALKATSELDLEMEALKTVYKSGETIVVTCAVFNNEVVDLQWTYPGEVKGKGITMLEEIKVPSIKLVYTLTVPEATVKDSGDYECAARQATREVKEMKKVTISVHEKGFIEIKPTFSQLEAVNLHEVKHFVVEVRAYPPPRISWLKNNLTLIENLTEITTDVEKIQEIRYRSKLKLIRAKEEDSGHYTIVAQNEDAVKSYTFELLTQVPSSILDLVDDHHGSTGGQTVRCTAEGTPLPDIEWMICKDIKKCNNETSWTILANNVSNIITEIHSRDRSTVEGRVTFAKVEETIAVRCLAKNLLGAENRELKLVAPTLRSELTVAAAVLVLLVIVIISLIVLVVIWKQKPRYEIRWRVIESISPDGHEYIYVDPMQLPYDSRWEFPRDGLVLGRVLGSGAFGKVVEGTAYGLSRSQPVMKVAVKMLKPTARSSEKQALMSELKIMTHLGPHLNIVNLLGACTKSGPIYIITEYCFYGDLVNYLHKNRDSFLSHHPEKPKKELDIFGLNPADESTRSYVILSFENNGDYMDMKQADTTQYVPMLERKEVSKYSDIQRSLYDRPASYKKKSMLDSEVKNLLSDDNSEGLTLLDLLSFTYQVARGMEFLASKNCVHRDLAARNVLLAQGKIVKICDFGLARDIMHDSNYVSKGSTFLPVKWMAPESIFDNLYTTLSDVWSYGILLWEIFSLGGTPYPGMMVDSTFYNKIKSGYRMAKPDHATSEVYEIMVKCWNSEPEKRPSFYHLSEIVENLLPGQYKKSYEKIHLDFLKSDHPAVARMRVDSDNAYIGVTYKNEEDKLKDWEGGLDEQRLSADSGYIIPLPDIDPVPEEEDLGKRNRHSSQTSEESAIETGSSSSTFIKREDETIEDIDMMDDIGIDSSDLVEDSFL
Procedure: as §1

[1] = Pharmacokinetic parameters in Sprague-Dawley rats; parameters: AUC(0-t): concentration or dose not given beside the values; details: rat, in vivo
Procedure: Various pharmacokinetic parameters of the compounds described herein were measured in Sprague-Dawley rats.

[2] = Human liver microsome stability; format: in vitro ADME; details: human liver microsomes; read-out: Human liver microsome t1/2
mice treated with MPTP = test: Mouse MPTP neurotoxicity model; format: in vivo; details: for dopamine levels (protection of dopamine-secreting neurons): HPLC-ECD, FIG. 4; for pole test latency: day 14, FIG. 3, control about 5 seconds, MPTP about 30
Procedure: Certain compounds of the present invention were evaluated using the MPTP neurotoxicity model. MPTP causes oxidative stress, which in turn causes c-Abl1 and/or c-Abl2 phosphorylation in the SNpc of mice treated with MPTP. MPTP administration according to this model produces a reliable, irreversible loss of DA neurons 7 days after the last injection, similar to that observed in PD. MPTP causes greater loss of DA neurons in SNpc and degeneration of DA nerve terminals in the caudate putamen. Many of the cell death signaling events observed in PD postmortem tissue are present in the MPTP model including oxidative stress, nitrosative stress, c-Abl activation, Parkin inactivation and PARIS and AIMP2 elevation and PARP activation. […] Because the model is relatively rapid, this model was used to assess dosing for future studies, and as a preliminary measure of efficacy.
The study design is depicted in FIG. 1. […] Wild type mice (n=5 per group) were divided into 4 treatment groups as follows: saline, MPTP, Drug and MPTP+Drug. Saline and MPTP groups were pre-treated with drug vehicle (unbuffered water) (20 animals total). Drug and MPTP+Drug groups received the test compounds for 6 days administered by oral gavage daily. On the seventh day, the saline and Drug groups received four intra-peritoneal (i.p.) injections of saline at 2 h intervals. The MPTP and MPTP+Drug groups received four intraperitoneal (i.p.) injections of MPTP·HCl (20 mg/kg free base) at 2 hr intervals. After the MPTP injection day, mice were treated for an additional 6 days with saline or an ATK inhibitor of the present invention. Mice in the saline and MPTP only groups received saline vehicle while the Drug and MPTP+Drug groups received an additional week of drug treatment. On the 14th day, mice were given a pole test, then sacrificed. Brain samples were processed for analysis of biogenic amine concentrations, including dopamine (DA), by high-performance liquid chromatography with electrochemical detection (HPLC-ECD). Loss of DA and its metabolites in the striatum is a consistently reliable indication of loss of DA neurons in the SNpc.

c-Abl1 = c-Abl1 (Homo sapiens, UniProt P00519); test: Inhibition of Abelson protein kinase c-Abl1 (FAM-labeled peptide assay, IC50); format: biochemical
Sequence of c-Abl1 (P00519 whole entry): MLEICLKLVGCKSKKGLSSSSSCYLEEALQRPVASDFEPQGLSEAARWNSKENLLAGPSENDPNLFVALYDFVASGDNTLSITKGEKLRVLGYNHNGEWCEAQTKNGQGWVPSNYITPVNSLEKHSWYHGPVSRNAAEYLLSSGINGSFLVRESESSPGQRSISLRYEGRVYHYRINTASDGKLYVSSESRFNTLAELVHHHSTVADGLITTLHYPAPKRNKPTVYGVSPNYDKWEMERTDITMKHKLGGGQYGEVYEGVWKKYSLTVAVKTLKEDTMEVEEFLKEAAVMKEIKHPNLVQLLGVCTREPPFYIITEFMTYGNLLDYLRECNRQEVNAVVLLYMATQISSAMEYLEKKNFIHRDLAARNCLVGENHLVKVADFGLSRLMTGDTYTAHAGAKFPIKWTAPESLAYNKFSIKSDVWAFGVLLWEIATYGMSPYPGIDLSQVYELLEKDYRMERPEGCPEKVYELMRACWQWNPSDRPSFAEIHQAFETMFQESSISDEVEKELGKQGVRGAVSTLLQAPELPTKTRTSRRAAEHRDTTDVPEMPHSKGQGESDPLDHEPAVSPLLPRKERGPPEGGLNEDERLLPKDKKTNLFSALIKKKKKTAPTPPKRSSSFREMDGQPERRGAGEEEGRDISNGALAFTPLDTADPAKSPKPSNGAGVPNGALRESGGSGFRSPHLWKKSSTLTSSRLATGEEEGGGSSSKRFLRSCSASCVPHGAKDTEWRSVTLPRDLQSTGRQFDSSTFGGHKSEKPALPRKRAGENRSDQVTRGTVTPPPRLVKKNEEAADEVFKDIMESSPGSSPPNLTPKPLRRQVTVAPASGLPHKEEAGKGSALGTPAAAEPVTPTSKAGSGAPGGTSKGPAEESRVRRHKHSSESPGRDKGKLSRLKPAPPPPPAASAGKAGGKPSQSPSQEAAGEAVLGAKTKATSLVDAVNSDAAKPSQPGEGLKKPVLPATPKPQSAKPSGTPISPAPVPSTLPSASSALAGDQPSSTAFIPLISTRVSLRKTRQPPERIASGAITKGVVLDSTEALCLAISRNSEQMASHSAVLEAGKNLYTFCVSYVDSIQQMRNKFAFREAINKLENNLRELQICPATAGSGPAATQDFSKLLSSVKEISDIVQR
Procedure: (§2) Mix the compounds in intermediate plate for 10 min on shaker. For the assay of enzyme inhibitions, 5 μl of each well from the intermediate plate is transferred to a 384-well plate in duplicates, 10. […] Then enzyme substrate is added as 10 μl of 2.5×FAM-labeled peptide+ATP solution to each well of the 384-well assay plate The reaction is allowed to proceed at 28° C. and quenched with the addition of 25 μl of stop buffer. The release of fluorescent FAM is quantitated as Percent inhibition=(max−conversion)/(max−min)*100. “max” stands for DMSO control; “min” stands for low control. Data are fit in XLFit excel add-in version 4.3.1 to obtain IC50 values. Equation used is: Y=Bottom+(Top−Bottom)/(1+(IC50/X)^HillSlope).

c-Abl2 = c-Abl2 (Homo sapiens, UniProt P42684); test: Inhibition of Abelson protein kinase c-Abl2 (FAM-labeled peptide assay, IC50); format: biochemical
Sequence of c-Abl2 (P42684 whole entry): as the sequence (P42684 whole entry) above
Procedure: as §2

[3] = system: animal models of Parkinson's Disease; details: literature (J. Neurosci. 31(1); Scientific Reports 4:4874); cited from earlier work

Sequence of ABL (P00519 whole entry): as the sequence (P00519 whole entry) above

Compound: Cc1ccnc(-c2cncc(-c3ccnc(Nc4cc(NC(=O)c5ccc(CN6CCN(C)CC6)cc5)ccc4C)n3)c2)c1 [Compound 830]
- inhibition at 0.5 µM (PDGFRa): 100%
- AUC(0-t) [1]: 3720 ± 1090 ng·h/mL
- Cmax [1]: 465 ± 115 ng/mL
- Tmax [1]: 4 h
- Vd [1]: 6.3 ± 1.1 L/kg
- bioavailability [1]: 47%
- clearance [1]: 21.7 mL/min/kg
- half-life [1]: 3.6 h
- half-life [2]: 0.326 h

Compound: Cc1ccc(NC(=O)c2ccc(CN3CCN(C)CC3)cc2)cc1Nc1nccc(-c2cncc(-c3ccnn3C)c2)n1 [Compound 831]
- inhibition at 0.5 µM (PDGFRa): 100%

Compound: Cc1ccc(NC(=O)c2ccc(CN3CCN(C)CC3)cc2)cc1Nc1nccc(-c2cncc(-c3ccn(C)n3)c2)n1 [Compound 832]
- inhibition at 0.5 µM (PDGFRa): 100%
- AUC(0-t) [1]: 3180 ± 930 ng·h/mL
- Cmax [1]: 416 ± 84.5 ng/mL
- Tmax [1]: 4 h
- Vd [1]: 3.6 ± 1.8 L/kg
- bioavailability [1]: 33%
- clearance [1]: 21.7 mL/min/kg
- half-life [1]: 2.6 h
- half-life [2]: 0.408 h
- dopamine levels (protection of dopamine-secreting neurons) (mice treated with MPTP): protected dopamine-secreting neurons from degeneration
- pole test latency (mice treated with MPTP): recovered to a near-normal latency time

Compound: Cc1ccc(NC(=O)c2ccc(CN3CCN(C)CC3)cc2)cc1Nc1nccc(-c2cncc(-c3ccns3)c2)n1 [Compound 8170]
- inhibition at 0.5 µM (PDGFRa): 100%

Compound: Cc1ccc(NC(=O)c2ccc(CN3CCN(C)CC3)cc2)cc1Nc1nccc(-c2cncc(-c3cnns3)c2)n1 [Compound 8230]
- IC50 (c-Abl1): > 1000 nM
- IC50 (c-Abl2): > 1000 nM

Compound: Cc1ccc(NC(=O)c2ccc(CN3CCN(C)CC3)cc2)cc1Nc1nccc(-c2cncc(-c3nccs3)c2)n1 [Compound 8270]
- AUC(0-t) [1]: 1760 ± 268 ng·h/mL
- Cmax [1]: 210 ± 31 ng/mL
- Tmax [1]: 5.3 h
- Vd [1]: 7.8 ± 0.7 L/kg
- bioavailability [1]: 46%
- clearance [1]: 43.3 mL/min/kg
- half-life [1]: 3.3 h
- half-life [2]: 0.348 h
- dopamine levels (protection of dopamine-secreting neurons) (mice treated with MPTP): protected dopamine-secreting neurons from degeneration
- pole test latency (mice treated with MPTP): not statistically significant

Compound: Cc1csc(-c2cncc(-c3ccnc(Nc4cc(NC(=O)c5ccc(CN6CCN(C)CC6)cc5)ccc4C)n3)c2)n1 [Compound 8290]
- inhibition at 0.5 µM (PDGFRa): 100%

Compound: Cc1ccc(NC(=O)c2ccc(CN3CCN(C)CC3)cc2)cc1Nc1nccc(-c2cccnc2)n1 [imatinib, reference compound]
- AUC(0-t) [1]: 2730 ng·h/mL
- Cmax [1]: 241 ng/mL
- Tmax [1]: 4 h
- bioavailability [1]: ~53%
- effectiveness in animal models of Parkinson's Disease [3]: appear effective

The remaining lines, values ahead:

- Percent inhibition ABL (ABL): 79%
- Percent inhibition ARG/Abl2 (ARG/Abl2): 62%
Compound: Cc1ccc(NC(=O)c2ccc(CN3CCN(C)CC3)cc2)cc1Nc1nccc(-c2cncc(-n3cccn3)c2)n1 [Compound 303]

- inhibition at 0.5 µM (PDGFRa): 100%
Compound: Cc1ccc(NC(=O)c2ccc(CN3CCNCC3)cc2)cc1Nc1nccc(-c2cncc(-c3ccncc3)c2)n1 [Compound 870]

- inhibition at 0.5 µM (PDGFRa): 100%
Compound: Cc1ccc(NC(=O)c2ccc(CN3CCNCC3)cc2)cc1Nc1nccc(-c2cncc(-c3ccccn3)c2)n1 [Compound 880]

- inhibition at 0.5 µM (PDGFRa): 100%
Compound: Cc1cc(-c2cncc(-c3ccnc(Nc4cc(NC(=O)c5ccc(CN6CCN(C)CC6)cc5)ccc4C)n3)c2)sn1 [Compound 8190]

- IC50 (c-Abl1): > 1000 nM
- IC50 (c-Abl2): > 1000 nM
Compound: Cc1ccc(NC(=O)c2ccc(CN3CCN(C)CC3)cc2)cc1Nc1nccc(-c2cncc(-c3snnc3C)c2)n1 [Compound 8240]

- inhibition at 0.5 µM (PDGFRa): 100%
Compound: Cc1ccc(NC(=O)c2ccc(CN3CCN(C)CC3)cc2)cc1Nc1nccc(-c2cncc(-c3nncs3)c2)n1 [Compound 8250]

- inhibition at 0.5 µM (PDGFRa): 100%
Compound: Cc1nnc(-c2cncc(-c3ccnc(Nc4cc(NC(=O)c5ccc(CN6CCN(C)CC6)cc5)ccc4C)n3)c2)s1 [Compound 8260]

- inhibition at 0.5 µM (PDGFRa): 100%
Compound: Cc1cnc(-c2cncc(-c3ccnc(Nc4cc(NC(=O)c5ccc(CN6CCN(C)CC6)cc5)ccc4C)n3)c2)s1 [Compound 8280]
